According to ChEMBL document CHEMBL5614448, “Current Trends in Psychedelic Science: Integrating Modified Lysergic Acid Derivatives and Psilocybin in Modern Medicine” (ACS Med Chem Lett, 2024):

Columns and labels:
[1] = target: T1, 5-hydroxytryptamine receptor 2A (Homo sapiens, UniProt P28223); assay: Activation of human 5-HT2A receptor assessed as maximal activation relative to control; settings: filed as activator
[2] = target: T1, 5-hydroxytryptamine receptor 2A; assay: Activation of human 5-HT2A receptor
[3] = target: T1, 5-hydroxytryptamine receptor 2A; assay: Displacement of [125I]DOI from 5-HT2A receptor (unknown origin) assessed as inhibition constant

T1 sequence (P28223 whole entry): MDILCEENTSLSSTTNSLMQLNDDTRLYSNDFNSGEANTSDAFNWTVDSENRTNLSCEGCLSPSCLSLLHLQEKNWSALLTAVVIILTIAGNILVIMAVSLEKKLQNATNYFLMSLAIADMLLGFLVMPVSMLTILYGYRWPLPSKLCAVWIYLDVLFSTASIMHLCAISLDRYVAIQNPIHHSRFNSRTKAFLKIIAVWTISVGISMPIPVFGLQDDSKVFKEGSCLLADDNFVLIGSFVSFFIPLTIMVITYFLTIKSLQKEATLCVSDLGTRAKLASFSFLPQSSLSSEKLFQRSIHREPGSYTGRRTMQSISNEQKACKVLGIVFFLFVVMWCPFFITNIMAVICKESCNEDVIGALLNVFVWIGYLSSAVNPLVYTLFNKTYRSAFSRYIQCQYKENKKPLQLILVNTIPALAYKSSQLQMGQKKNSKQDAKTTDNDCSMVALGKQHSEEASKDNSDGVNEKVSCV

Row | SMILES | max activation [1] | EC50 [2] | Ki [3]
1 | CCN(CCF)C(=O)[C@@H]1C=C2c3cccc4[nH]cc(c34)C[C@H]2N(C)C1 | 69% | 430 pM | 340 pM
2 | CN(CC(F)(F)F)C(=O)[C@@H]1C=C2c3cccc4[nH]cc(c34)C[C@H]2N(C)C1 | 72% | 9100 pM | 260 pM
3 | CCN(CC(F)F)C(=O)[C@@H]1C=C2c3cccc4[nH]cc(c34)C[C@H]2N(C)C1 | 77% | 760 pM | 210 pM
4 | C#CCN(CC)C(=O)[C@@H]1C=C2c3cccc4[nH]cc(c34)C[C@H]2N(C)C1 | 68% | 830 pM | 360 pM
5 | CCN(CC(F)(F)F)C(=O)[C@@H]1C=C2c3cccc4[nH]cc(c34)C[C@H]2N(C)C1 | 82% | 3200 pM | 450 pM
6 | C#CCN(C)C(=O)[C@@H]1C=C2c3cccc4[nH]cc(c34)C[C@H]2N(C)C1 | 70% | 980 pM | 540 pM
7 | CN1C[C@H](C(=O)N(CCF)CC(F)F)C=C2c3cccc4[nH]cc(c34)C[C@H]21 | 78% | 250 pM | 430 pM
8 | CN1C[C@H](C(=O)N(CC(F)F)CC(F)F)C=C2c3cccc4[nH]cc(c34)C[C@H]21 | 82% | 900 pM | 330 pM
9 | CCN(CC#N)C(=O)[C@@H]1C=C2c3cccc4[nH]cc(c34)C[C@H]2N(C)C1 | 68% | 880 pM | 190 pM
